# Tests used:
# [1] = (§1) Cytotoxicity against HEK293 cells at 20 uM by alamar blue assay; type: cell-based; details: human, HEK293 cells; read-out: INH
# Plasmodium falciparum [2] = experiment: Antimalarial activity against Plasmodium falciparum Dd2 incubated for 72 hours by DAPI-staining based confocal imaging analysis; type: functional, organism-based; details: Dd2, 72 h
# [3] = Therapeutic ratio of IC50 for HEK293 cells to IC50 for Plasmodium falciparum 3D7; type: cell-based; details: human, HEK293 cells versus Plasmodium falciparum 3D7; read-out: Ratio IC50
# Plasmodium falciparum [4] = experiment: Antimalarial activity against Plasmodium falciparum 3D7 incubated for 72 hours by DAPI-staining based confocal imaging analysis; type: functional, organism-based
# HEK293 [5] = experiment: as §1; type: cell-based; details: human, hek293, 20 µM
# Plasmodium falciparum [6] = experiment: Antimalarial activity against Plasmodium falciparum Dd2 at 20 uM incubated for 72 hours by DAPI-staining based confocal imaging analysis; type: functional; details: Dd2, 72 h
# Plasmodium falciparum [7] = experiment: Antimalarial activity against Plasmodium falciparum 3D7 at 20 uM incubated for 72 hours by DAPI-staining based confocal imaging analysis; type: functional; details: 3D7, 72 h
# [8] = Cytotoxicity against HEK293 cells at 10 uM by alamar blue assay; type: cell-based; details: human, read-out: INH
# HEK293 [9] = experiment: Cytotoxicity against HEK293 cells by alamar blue assay; type: cell-based; details: Homo sapiens
# [10] = Plasmodium falciparum, 3D7, 72 h, read-out: IC50
SMILES,IC50 (Plasmodium falciparum [2]) [nM],selectivity ratio [3],IC50 (Plasmodium falciparum [4]; [10]) [nM],Activity (HEK293 [5]),other results
COc1cccc(/C=C/c2ccc(C(=O)Nc3cc(C(=O)Nc4nc(C(=O)NCCCN(C)C)c(CCC(C)C)s4)n(C)c3)cc2)c1,1130,> 36,544,–,cytotoxicity at 20 µM [1]: 86%
CN(C)CCCNC(=O)c1cc(NC(=O)c2cc(NC(=O)c3cc(NC(=N)c4ccccc4)cn3C)cn2C)cn1C,–,–,–,Non-toxic,inhibition at 20 µM (Plasmodium falciparum [6]): 63%; inhibition at 20 µM (Plasmodium falciparum [7]): 90%
CSc1ccc(/C=C/c2ccc3cc(C(=O)Nc4cc(C(=O)Nc5cc(C(=O)NCCN6CCOCC6)n(C)c5)n(C)c4)ccc3n2)cc1,1900,–,1770,Non-toxic,–
CC(=N)Nc1cc(C(=O)Nc2cc(C(=O)Nc3cc(C(=O)NCCCN(C)C)n(C)c3)n(C)c2)n(C)c1,6460,–,6420,Non-toxic,–
CC(C)CCc1sc(NC(=O)c2cc(NC(=O)c3ccc(/C=C/c4ccc5ccccc5n4)cc3)cn2C)nc1C(=O)NCCN1CCOCC1,241,–,103,Non-toxic,–
COc1ccc(/C=C/c2ccc3cc(C(=O)Nc4cc(C(=O)Nc5cc(C(=O)NCCN6CCOCC6)n(C)c5)n(C)c4)ccc3n2)cc1,2990,–,1950,Non-toxic,–
Cn1cc(NC(=O)c2cc(NC(=O)c3cc(NC(=O)c4cc5ccccc5cn4)cn3C)cn2C)cc1C(=O)NCCCN1CCOCC1,5990,–,7860,Non-toxic,–
Cn1cc(NC(=O)c2cc(NC(=O)c3ccc(/C=C/c4ccc5nsnc5c4)cc3)cn2C)cc1C(=O)NCCN1CCOCC1,5140,–,6040,Non-toxic,–
CN(C)CCCNC(=O)c1cc(NC(=O)c2cc(NC(=O)c3cc4ccccc4cn3)cn2C)cn1C,4350,–,4700,Non-toxic,–
COc1cccc(C(=N)Nc2cc(C(=O)Nc3cc(C(=O)Nc4cc(C(=O)NCCCN(C)C)n(C)c4)n(C(C)C)c3)n(C)c2)c1,–,–,9980,Non-toxic,inhibition at 20 µM (Plasmodium falciparum [6]): 100%
Cn1cc(NC(=O)c2cc(NC(=O)c3cc(NC(=O)c4ccc(Cl)cc4Cl)cn3C)cn2C)cc1C(=O)NCCCN1CCOCC1,3620,–,3040,Non-toxic,–
Cn1cc(NC(=O)c2cc(NC(=O)c3ccc(/C=C/c4ccc(C(F)(F)F)cc4)cc3)cn2C)cc1C(=O)NCCN1CCOCC1,3690,–,3570,Non-toxic,–
Cn1cc(NC(=O)c2cc(NC(=O)c3ccc(/C=C/c4ccc5nonc5c4)cc3)cn2C)cc1C(=O)NCCN1CCOCC1,2300,–,1930,Non-toxic,–
Cn1cc(NC(=O)c2cc(NC(=O)c3cc(NC(=O)c4ccc(Cl)cc4Cl)cn3C)cn2C)cc1C(=O)NCCN1CCOCC1,3070,–,1800,Non-toxic,–
Cn1cc(NC(=O)c2cc(NC(=O)c3ccc(/C=C/c4cccc(F)c4)cc3)cn2C)cc1C(=O)NCCN1CCOCC1,2750,–,3320,Non-toxic,–
Cn1cc(NC(=O)c2cc(NC(=O)c3cc4ccccc4cn3)cn2C)cc1C(=O)NCCN1CCOCC1,3270,–,4310,Non-toxic,–
Cn1cc(NC(=O)c2cc(NC(=O)c3cc(NC=O)cn3C)cn2C)cc1C(=O)NCCN1CCOCC1,–,–,–,Non-toxic,inhibition at 20 µM (Plasmodium falciparum [6]): 25%; inhibition at 20 µM (Plasmodium falciparum [7]): 98%
CC(C)CCc1sc(NC(=O)c2cc(NC(=O)c3cc(/C=C/c4ccc([N+](=O)[O-])cc4)cn3C)cn2C)nc1C(=O)NCCN1CCOCC1,289,> 60,322,–,cytotoxicity at 20 µM [1]: 54%

SMILES,IC50 (Plasmodium falciparum [2]) [nM],selectivity ratio [3],IC50 (Plasmodium falciparum [4]; [10]) [nM],Activity (HEK293 [5]),other results
Cn1cc(NC(=O)c2cc(NC(=O)c3ccc(/C=C/c4ccc(F)cc4)cc3)cn2C)cc1C(=O)NCCN1CCOCC1,3340,–,3300,Non-toxic,–
CC(C)n1cc(NC(=O)c2cc(NC(=O)c3cnc(Cl)c(Cl)c3)cn2C)cc1C(=O)Nc1cc(C(=O)NCCCN(C)C)n(C)c1,–,–,–,Non-toxic,inhibition at 20 µM (Plasmodium falciparum [6]): 65%; inhibition at 20 µM (Plasmodium falciparum [7]): 75%
CN(C)CCCNC(=O)c1cc(NC(=O)c2cc(NC(=O)c3cc(NC(=N)c4cc5ccccc5cn4)cn3C)cn2C)cn1C,2770,–,3380,–,cytotoxicity at 10 µM [8]: 40%
COc1ccnc(C(=N)Nc2cc(C(=O)Nc3cc(C(=O)Nc4nc(C(=O)NCCN5CCOCC5)c(C(C)C)s4)n(C)c3)n(C)c2)c1,2970,–,2730,Non-toxic,–
CN(C)CCCn1cnc(NC(=O)c2cc(NC(=O)c3cc(NC(=O)c4cc5ccccc5cn4)cn3C)cn2C)c1.O=C(O)C(F)(F)F,4480,–,5490,Non-toxic,–
CC(C)c1sc(NC(=O)c2cc(NC(=O)c3cc(NC(=O)c4cc5ccccc5cn4)cn3C)cn2C)nc1C(=O)NCCN1CCOCC1,636,> 42,469,Non-toxic,–
CC(C)CCc1sc(NC(=O)c2cc(NC(=O)c3cc4ccccc4cn3)cn2C)nc1C(=O)NCCCN(C)C,2000,–,1410,Non-toxic,–
Cn1cc(NC(=O)c2cc(NC(=O)c3ccc(/C=C/c4ccncc4)cc3)cn2C)cc1C(=O)NCCN1CCOCC1,923,> 26,780,–,cytotoxicity at 20 µM [1]: 63%
COc1cccc(/C=C/c2cccc(C(=O)Nc3cc(C(=O)Nc4nc(C(=O)NCCCN(C)C)c(CCC(C)C)s4)n(C)c3)c2)c1,1150,6.7,868,–,IC50 (HEK293 [9]): 5.8 µM
CC(C)CCc1sc(NC(=O)c2cc(NC(=O)c3ccc(/C=C/c4ccc5ccccc5c4)cc3)cn2C)nc1C(=O)NCCN1CCOCC1,588,> 50,390,Non-toxic,–
CC(C)CCc1sc(NC(=O)c2cc(NC(=O)c3cc(/C=C/c4ccc([N+](=O)[O-])cc4)cn3C)cn2C)nc1C(=O)NCCCN(C)C,339,> 14,350,–,cytotoxicity at 20 µM [1]: 60%
COc1cccc(C(=N)Nc2cc(C(=O)Nc3cc(C(=O)Nc4cc(C(=O)NCCCN5CCOCC5)n(C)c4)n(C)c3)n(C)c2)c1,–,–,–,Non-toxic,inhibition at 20 µM (Plasmodium falciparum [6]): 35%; IC50 (Plasmodium falciparum [4]): Not Active
Cn1cc(NC(=O)c2cc(NC(=O)c3ccc(/C=C/c4nc5ccccc5o4)cc3)cn2C)cc1C(=O)NCCN1CCOCC1,38,> 514,39,Non-toxic,–
C[C@@H]1CC[C@H]2[C@@H](C)C(=O)O[C@@H]3O[C@@]4(C)CC[C@@H]1[C@]32OO4 [ARTEMISININ],9,> 10000,–,–,IC50 (HEK293 [9]): > 120 µM
CCN(CC)CCCC(C)Nc1ccnc2cc(Cl)ccc12 (configuration not stated) [CHLOROQUINE],–,–,–,–,IC50 (HEK293 [9]): > 120 µM
COc1ccc(C[C@H](N)C(=O)N[C@H]2[C@@H](O)[C@H](n3cnc4c(N(C)C)ncnc43)O[C@@H]2CO)cc1 [PUROMYCIN],62,6,60,–,–
CCc1nc(N)nc(N)c1-c1ccc(Cl)cc1 [PYRIMETHAMINE],> 120,955,8.45,–,IC50 (HEK293 [9]): 8.07 µM

# — ChEMBL document CHEMBL3813603, “Selective anti-malarial minor groove binders” (Bioorg Med Chem Lett, 2016)
